Publication PMC10053770, “Assessment of the Pharmacokinetics, Disposition, and Duration of Action of the Tumour-Targeting Peptide CEND-1” (International Journal of Molecular Sciences, 2023)
Where two headings read alike, the source gives them in different places.

What was measured:
[1] = Single-dose intravenous pharmacokinetics in rats; format: in vivo, rat; conditions: for Vd: read-out: V; for clearance: read-out: Cl_obs (converted)
Protocol: The in vivo pharmacokinetic profile of CEND-1 after a single dose was evaluated in four non-GLP animal studies including Sprague-Dawley rats, Beagle dogs, cynomolgus monkeys and BALB/c mice following the intravenous injection of CEND-1 at various doses ([…]; 1.5, 4.5 and 13.5 mg/kg for mice) (Table 1). Blood samples were collected for pharmacokinetic evaluations pre-dose and at 1, 5, 10, 15 and 30 min, and 1, 2 and 6 h post-dose in rats, dogs and monkeys, and 3, 10, 30 and 90 min, and 4 and 8 h post-dose in mice.
(§1) Plasma CEND-1 was quantified by validated liquid chromatography coupled with a tandem mass spectrometry (LC/MS/MS) assay. Tolbutamide or leuprorelin acetate were used as internal standards. AB Sciex Triple Quad API 5500 (Sciex, Framingham, MA, USA), operated in the positive electrospray ionization (ESI) mode, was used to monitor the precursor to production ion transitions of m/z 495.4→69.9.
(§2) No formal sample size calculation was performed. Samples of 2–12 animals and 31 pancreatic cancer patients were considered acceptable to perform initial pharmacokinetic evaluations. The concentrations of CEND-1 were used to calculate PK parameters by employing a non-compartmental analysis (Phoenix^TM WinNonlin, version 6.1). The linear log trapezoidal algorithm, with a weighting of 1/Y*Y was used for parameter calculations. Mean PK parameters were calculated from individual animals in each treatment group. Concentrations below the LLOQ (if any) were excluded for the calculation of PK parameters. The mean values of PK parameters were calculated using Microsoft Excel version 2010.

[2] = Single-dose intravenous pharmacokinetics in cynomolgus monkeys; format: in vivo; conditions: cynomolgus monkey; for clearance: read-out: Cl_obs (converted); for Vd: read-out: V
Protocol: The in vivo pharmacokinetic profile of CEND-1 after a single dose was evaluated in four non-GLP animal studies including Sprague-Dawley rats, Beagle dogs, cynomolgus monkeys and BALB/c mice following the intravenous injection of CEND-1 at various doses (1, 5 and 50 mg/kg for rats, dogs and monkeys; 1.5, 4.5 and 13.5 mg/kg for mice) (Table 1). Blood samples were collected for pharmacokinetic evaluations pre-dose and at 1, 5, 10, 15 and 30 min, and 1, 2 and 6 h post-dose in rats, dogs and monkeys, and 3, 10, 30 and 90 min, and 4 and 8 h post-dose in mice.
as §1, §2

[3] = Clinical pharmacokinetics in patients with metastatic pancreatic ductal adenocarcinoma; format: in vivo, human; conditions: for Vd: 3.2 mg/kg, read-out: Vz
Protocol: In this study, CEND-1 PK data from up to 28 participants receiving either 1.6 mg/kg (n = 14) and 3.2 mg/kg (n = 14) in the expansion cohort were analysed. Details of this phase I clinical study, conducted in patients with metastatic pancreatic ductal adenocarcinoma receiving CEND-1 in combination with nab-paclitaxel and gemcitabine, are described in detail by Dean et al.. PK parameters were measured following CEND-1 monotherapy (run-in day 1) and combination therapy (cycle 1 day 1 and cycle 6 day 1, if applicable).
In the initial monotherapy run-in phase, single doses of CEND-1 were given one to seven days before the start of the combination chemotherapy. In the combination therapy phase, patients first received an intravenous infusion of nab-paclitaxel (125 mg/m^2) over 30 min (±3 min). CEND-1 was then given intravenously as a slow IV push over 1 min (±30 s). The intravenous infusion of gemcitabine (1000 mg/m^2 over 30 min (±3 min)) was started within 10 min of CEND-1 administration. On all occasions, plasma samples were collected from patients before the CEND-1 infusion and at 3 min (±1 min), 15 min (±3 min), 30 min (±3 min), 1 hour (±5 min), ¾ h (±10 min) and 6/8 h (±10 min) after completion of the infusion.
as §2

[4] = design: method as in PMID 35803294; conditions: phase I trial, monotherapy and in combination with chemotherapy drugs; cited from earlier work
[5] = female, Sprague-Dawley rat, F, n=6, 1 mg/kg single IV, plasma LC/MS/MS, non-compartmental, one time point per animal
[6] = female, Sprague-Dawley rat, F, n=6, 5 mg/kg single IV, plasma LC/MS/MS, non-compartmental, one time point per animal
[7] = female, Sprague-Dawley rat, F, n=6, 75 mg/kg single IV, plasma LC/MS/MS, non-compartmental, one time point per animal
[8] = female, Sprague-Dawley rat, F, n=6, single IV, plasma LC/MS/MS, non-compartmental, one time point per animal
[9] = male, Sprague-Dawley rat, M, n=6, 1 mg/kg single IV, plasma LC/MS/MS, non-compartmental, one time point per animal
[10] = male, Sprague-Dawley rat, M, n=6, 5 mg/kg single IV, plasma LC/MS/MS, non-compartmental, one time point per animal
[11] = male, Sprague-Dawley rat, M, n=6, 75 mg/kg single IV, plasma LC/MS/MS, non-compartmental, one time point per animal
[12] = male, Sprague-Dawley rat, M, n=6, single IV, plasma LC/MS/MS, non-compartmental, one time point per animal
[13] = male, M, n=3, 5 mg/kg single IV, plasma LC/MS/MS, non-compartmental, mean (SD)
[14] = male, M, n=3, 50 mg/kg single IV, plasma LC/MS/MS, non-compartmental, mean (SD)
[15] = pancreatic cancer patients, 3.2 mg/kg IV, plasma, Cycle 1 Day 1 with nab-paclitaxel+gemcitabine, mean, N=9
[16] = pancreatic cancer patients, 3.2 mg/kg IV, plasma, Cycle 1 Day 1 with nab-paclitaxel+gemcitabine, mean, N=13
[17] = pancreatic cancer patients, 3.2 mg/kg IV, plasma, Cycle 6 Day 1 with nab-paclitaxel+gemcitabine, N=1
[18] = pancreatic cancer patients, 3.2 mg/kg IV, plasma, Cycle 6 Day 1 with nab-paclitaxel+gemcitabine, mean, N=5
[19] = pancreatic cancer patients, 3.2 mg/kg IV, plasma, Run-In (monotherapy), mean, N=7
[20] = pancreatic cancer patients, 3.2 mg/kg IV, plasma, Run-In (monotherapy), mean, N=8

Work on `CC(=O)N[C@H]1CSSC[C@@H](C(N)=O)NC(=O)[C@H](CC(=O)O)NC(=O)[C@@H]2CCCN2C(=O)CNC(=O)[C@H](CCCCN)NC(=O)[C@H](CC(=O)O)NC(=O)CNC(=O)[C@H](CCCNC(=N)N)NC1=O` [CEND-1] yielded a Cl_obs ([1]; Sprague-Dawley rat, F, n=6, 1 mg/kg single IV, plasma LC/MS/MS, non-compartmental, one time point per animal) of 9.37 mL/min/kg, a half-life ([1]; Sprague-Dawley, rat, plasma, rats, single intravenous dose, read-out: average half-life) of ~30 min and an AUC(0-inf) [1, 5] of 1750 ng·h/mL. For the same compound, the C0 [1, 5] was 3980 ng/mL, the Vd [1, 5] was 0.201 L/kg and the half-life ([1]; female, Sprague-Dawley rat, F, n=6, 1 mg/kg single IV, plasma LC/MS/MS, non-compartmental, one time point per animal, read-out: t1/2 (converted)) was 14.9 min. The AUC(0-inf) [1, 6] was 9750 ng·h/mL, the C0 [1, 6] was 28400 ng/mL and the clearance [1, 6] was 8.55 mL/min/kg. The Vd [1, 6] was 0.323 L/kg, the half-life ([1]; female, Sprague-Dawley rat, F, n=6, 5 mg/kg single IV, plasma LC/MS/MS, non-compartmental, one time point per animal, read-out: t1/2 (converted)) was 26.2 min and the AUC(0-inf) [1, 7] was 166000 ng·h/mL. The Vd [1, 7] was 0.254 L/kg, the half-life ([1]; female, Sprague-Dawley rat, F, n=6, 75 mg/kg single IV, plasma LC/MS/MS, non-compartmental, one time point per animal, read-out: t1/2 (converted)) was 23.5 min and the C0 [1, 8] was 436000 ng/mL. It also gave a clearance [1, 8] of 7.52 mL/min/kg, an AUC(0-inf) [1, 9] of 1770 ng·h/mL and a C0 [1, 9] of 4230 ng/mL. For the same compound, the clearance [1, 9] was 9.3 mL/min/kg, the Vd [1, 9] was 0.64 L/kg and the half-life ([1]; male, Sprague-Dawley rat, M, n=6, 1 mg/kg single IV, plasma LC/MS/MS, non-compartmental, one time point per animal, read-out: t1/2 (converted)) was 48.3 min. It also gave an AUC(0-inf) [1, 10] of 9060 ng·h/mL, a C0 [1, 10] of 24300 ng/mL and a clearance [1, 10] of 9.2 mL/min/kg. For the same compound, the Vd [1, 10] was 0.366 L/kg, the half-life ([1]; male, Sprague-Dawley rat, M, n=6, 5 mg/kg single IV, plasma LC/MS/MS, non-compartmental, one time point per animal, read-out: t1/2 (converted)) was 27.6 min and the AUC(0-inf) [1, 11] was 215000 ng·h/mL. The Vd [1, 11] was 0.171 L/kg, the half-life ([1]; male, Sprague-Dawley rat, M, n=6, 75 mg/kg single IV, plasma LC/MS/MS, non-compartmental, one time point per animal, read-out: t1/2 (converted)) was 20.5 min and the C0 [1, 12] was 469000 ng/mL. The clearance [1, 12] was 5.8 mL/min/kg, the half-life ([2]; plasma, male cynomolgus monkeys, IV 5 and 50 mg/kg, read-out: average half-life) was ~55 min and the AUC(0-inf) [2, 13] was 28200 ng·h/mL. For the same compound, the C0 [2, 13] was 55100 ng/mL, the clearance [2, 13] was 2.98 mL/min/kg and the Vd [2, 13] was 0.204 L/kg. The half-life ([2]; male, M, n=3, 5 mg/kg single IV, plasma LC/MS/MS, non-compartmental, mean (SD), read-out: t1/2 (converted)) was 53.3 min, the AUC(0-inf) [2, 14] was 421000 ng·h/mL and the C0 [2, 14] was 602000 ng/mL. The clearance [2, 14] was 2.97 mL/min/kg, the Vd [2, 14] was 0.162 L/kg and the half-life ([2]; male, M, n=3, 50 mg/kg single IV, plasma LC/MS/MS, non-compartmental, mean (SD), read-out: t1/2 (converted)) was 57.4 min. It also gave a Vd ([3]; human, plasma, iv, pancreatic cancer patients, 3.2 mg/kg IV, plasma, Cycle 1 Day 1 with nab-paclitaxel+gemcitabine, mean, N=9) of 0.263 L/kg, a Vd ([3]; human, plasma, iv, pancreatic cancer patients, 3.2 mg/kg IV, plasma, Run-In (monotherapy), mean, N=7) of 0.269 L/kg and a Tmax ([3]; human, plasma, iv, patients, run-in day 1, 1.6 and 3.2 mg/kg, read-out: time of peak plasma concentration (first post-dose PK sampling timepoint) (converted)) of 3 min. It also gave a level at 8 h ([3]; human, plasma, patients, run-in day 1, 1.6 and 3.2 mg/kg IV, SD = 317.9, read-out: mean plasma concentration by 8 h post-dose) of 439 ng/mL, an AUC0-t ([3]; human, pancreatic cancer patients, 3.2 mg/kg IV, plasma, Cycle 6 Day 1 with nab-paclitaxel+gemcitabine, mean, N=5, read-out: AUC0-t) of 30600 ng·h/mL and a Cmax ([3]; human, pancreatic cancer patients, 3.2 mg/kg IV, plasma, Cycle 6 Day 1 with nab-paclitaxel+gemcitabine, mean, N=5, read-out: Cmax) of 25800 ng/mL. For the same compound, the Tmax ([3]; human, pancreatic cancer patients, 3.2 mg/kg IV, plasma, Cycle 6 Day 1 with nab-paclitaxel+gemcitabine, mean, N=5, read-out: Tmax) was 3.78 min, the AUC0-inf/D [3, 15] was 9592 kg·ng·h/mL and the AUC(0-inf) [3, 15] was 30,690 h*ng/mL. It also gave a CL [3, 15] of 1.792 mL/min/kg, a t1/2 [3, 15] of 103.5 min and a λlast [3, 15] of 0.4082 h⁻¹. For the same compound, the AUC0-t [3, 16] was 28,610 h*ng/mL, the AUC0-t/D [3, 16] was 8942 kg·ng·h/mL and the Cmax [3, 16] was 24,050 ng/mL. The Cmax/D [3, 16] was 7514 kg*ng/mL/m, the Tlast [3, 16] was 5.767 h and the Tmax [3, 16] was 6.78 min. For the same compound, the AUC0-inf/D [3, 17] was 10,440 h*kg*ng/mL, the AUC(0-inf) [3, 17] was 33,400 h*ng/mL and the CL [3, 17] was 1.6 mL/min/kg. The Vz [3, 17] was 0.2209 L/kg, the t1/2 [3, 17] was 95.88 min and the λlast [3, 17] was 0.4338 h⁻¹. The AUC0-t/D [3, 18] was 9558 kg·ng·h/mL, the Cmax/D [3, 18] was 8050 kg*ng/mL/m and the Tlast [3, 18] was 4.897 h. The AUC0-inf/D [3, 19] was 10,800 h*kg*ng/mL, the AUC(0-inf) [3, 19] was 34,560 h*ng/mL and the CL [3, 19] was 1.63 mL/min/kg. The t1/2 [3, 19] was 117.4 min, the λlast [3, 19] was 0.3607 h⁻¹ and the AUC0-t [3, 20] was 31,330 h*ng/mL. The AUC0-t/D [3, 20] was 9791 kg·ng·h/mL, the Cmax [3, 20] was 31,210 ng/mL and the Tlast [3, 20] was 6.725 h. For the same compound, the Tmax [3, 20] was 7.02 min, the plasma half-life ([3]; patients, intravenous administration) was ~120 min and the safety profile [4] was “acceptable safety profile”.
